The values that follow come from patent US8372807B2, “Methods of modulating uric acid levels” (Ardea Biosciences, Inc., priority 2009, dated 2013).

The experiment has as its target T1, hURAT1 transporter (URAT-1) (Homo sapiens, UniProt Q96S37).
T1 construct: Full-length human URAT1 gene (SLC22A12) was subcloned from plasmid pCMV6-XL5
T1 sequence (Q96S37 1-553): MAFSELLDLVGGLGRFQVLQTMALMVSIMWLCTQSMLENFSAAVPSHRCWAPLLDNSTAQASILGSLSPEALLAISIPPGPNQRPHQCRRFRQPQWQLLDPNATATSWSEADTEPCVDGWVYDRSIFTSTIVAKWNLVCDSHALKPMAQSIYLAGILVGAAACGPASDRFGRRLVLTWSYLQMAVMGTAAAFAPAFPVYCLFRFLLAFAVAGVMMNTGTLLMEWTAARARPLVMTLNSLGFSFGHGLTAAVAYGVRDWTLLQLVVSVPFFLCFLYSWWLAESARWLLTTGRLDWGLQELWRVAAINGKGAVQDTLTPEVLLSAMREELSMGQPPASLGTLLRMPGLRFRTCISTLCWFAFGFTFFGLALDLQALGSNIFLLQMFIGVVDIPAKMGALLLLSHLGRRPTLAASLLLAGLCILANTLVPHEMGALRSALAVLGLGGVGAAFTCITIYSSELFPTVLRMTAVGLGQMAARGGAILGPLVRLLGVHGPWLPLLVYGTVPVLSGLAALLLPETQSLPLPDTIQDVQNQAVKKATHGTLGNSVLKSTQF
The experiment is described as follows: Uric Acid Uptake Assay (URAT-1 EC50). In kind it is cell-based. Particulars: HEK293/urat1 cells, C14 uric acid uptake, 40 μM uric acid, 10 minutes at room temperature. From the text:
Uric Acid Uptake Assay (URAT-1 EC50)
Creation of Stable Cell Lines Expressing hURAT1 Transporter: Full-length human URAT1 gene (SLC22A12) was subcloned from plasmid pCMV6-XL5 (Origene) into eukaryotic expression plasmid pCMV6/Neo (Origene) using Not I restriction sites. Gene sequencing confirmed the sequence of hURAT1 as outlined in Genbank (Accession #NM_144585.2). HEK293 human embryonic kidney cells (ATCC#CRL-1573) were propagated in EMEM tissue culture medium as described by ATCC in an atmosphere of 5% CO2 and 95% air. Transfections of HEK293 cells with the pCMV6/Neo/URAT1 construct were performed using L2000 transfection reagent (Invitrogen) as described by the manufacturer. After 24 h the transfected cells were split into 10 cm tissue culture plates and grown for 1 day after which the medium was replaced with fresh growth medium containing G418 (Gibco) at 0.5 mg/ml final concentration. Drug-resistant colonies were selected after approximately 8 days and then tested for ^14C-uric acid transport activity. The HEK293/urat1 cells are plated on Poly-D-Lysine Coated 96-well Plates at a density of 75,000 cells per well.
Cells were grown overnight (20-26 hours) at 37° C. in an incubator. Plates were allowed to come to room temperature and media was washed out with one wash of 250 μl of Wash Buffer (125 mM Na Gluconate, 10 mM Hepes pH 7.3). Compound or vehicle is added in assay buffer with C14 Uric Acid for a final concentration of 40 μM Uric Acid with a specific activity of 54 mCi/mmol Assay Buffer is 125 mM Sodium Gluconate, 4.8 mM Potassium Gluconate, 1.2 mM Potassium phosphate, monobasic, 1.2 mM magnesium sulfate, 1.3 mM Ca Gluconate, 5.6 mM Glucose, 25 mM HEPES, pH 7.3. Plates were incubated at room temperature for 10 minutes then washed 3 times with 50 μl Wash Buffer and 3 times with 250 μl Wash Buffer. Microscint 20 Scintillation Fluid was added and plates were incubated overnight at 45° C. to equilibrate. Plates are then read on the TopCount Plate Reader and an EC50 value generated. (See Enomoto et al, Nature, 2002, 417, 447-451 and Anzai et al, J. Biol. Chem., 2004, 279, 45942-45950.)
Compounds prepared as described above in examples 24-32, were examined according to the procedure described herein and EC50 values generated. The table below summarizes the activity of the compounds in the Uric Acid Uptake Assay, wherein
As to `CCOC(=O)C(C)(C)Oc1n[nH]c(C)c1-c1cccc2ccccc12` [26 (step C), Ethyl 2-methyl-2-(5-methyl-4-(naphthalen-1-yl)-1H-pyrazol-3-yloxy)propanoate], the EC50 is < 5 µM.

For `Cc1[nH]nc(OC(C)(C)C(=O)O)c1-c1cccc2ccccc12` [26 (step D), 2-methyl-2-(5-methyl-4-(naphthalen-1-yl)-1H-pyrazol-3-yloxy)propanoic acid], the EC50 is < 5 µM.

As to `CC(C)(Oc1ccnn1-c1cccc2ccccc12)C(=O)O` [Example 24, 2-Methyl-2-(1-(naphthalen-1-yl)-1H-pyrazol-5-yloxy)propanoic acid], the 50% effective concentration (EC50) fell in the range of 5 to 20 µM.

Consider `CC(C)(Sc1ccnn1-c1cccc2ccccc12)C(=O)O` [Example 25, 2-Methyl-2-(1-(naphthalen-1-yl)-1H-pyrazol-5-ylthio)propanoic acid], for which the EC50 was < 5 µM. The result for `CC(C)(Sc1cnnn1-c1cccc2ccccc12)C(=O)O` [Example 28, 2-Methyl-2-(1-(naphthalen-1-yl)-1H-1,2,3-triazol-5-ylthio)propanoic acid] reads < 5 µM; that for `CC(C)(Sc1nnnn1-c1cccc2ccccc12)C(=O)O` [Example 30, 2-Methyl-2-(1-(naphthalen-1-yl)-1H-tetrazol-5-ylthio)propanoic acid], < 5 µM; that for `O=C(O)CSc1snnc1-c1cccc2ccccc12` [Example 32, 2-(4-(Naphthalen-1-yl)-1,2,3-thiadiazol-5-ylthio)acetic acid], 5 to 20 µM.
